Here are results for two substances from patent US6673902B2, “Cyclin D binding factor, and uses thereof” (St. Jude Children's Research Hospital, priority 1996, dated 2004).

Series [1] relates to DMP1-responsive promoter (pGL2BS2). In words: Transactivation of luciferase reporter plasmid under control of a DMP1-responsive promoter in NIH-3T3 fibroblasts. Format: cell-based, mouse. As to conditions: expression vector 3 μg/10 ml, pGL2BS2 8 μg/10 ml; vector without insert set to 1.0. From the text: Coexpression of a D-type cyclin with DMP1 overrides the ability of DMP1 to transactivate a luciferase gene under the control of an artificial DMP1-responsive promoter (Table 4), as well as the ability of DMP1 to inhibit cell growth.
Background: A reporter such as luciferase makes a cellular process visible.

Series [2] concerns NIH-3T3 fibroblasts. In words: BrdU incorporation in transfected NIH-3T3 fibroblasts. Format: cell-based, mouse. How it is done: BrdU is added to NIH-3T3 cells after the experimental treatment and the cells were incubated for twenty-two hours in DMEM plus 10% fetal calf serum (FCS). The cells were then stained for DMP1 expression and/or BrdU incorporation. The nucleic acids encoding the wildtype DMP1 and the deletion and point mutants had been constructed so as to express the corresponding proteins with Flag-tags. To stain for DMP1 expression, mouse monoclonal anti-Flag antibodies (12 μg/ml) [Kodak] were incubated with the cells in TBS-Ca^+ without FCS for one hour at room temperature. After washing the cells, horse anti-mouse biotinylated antibodies at a 1:500 dilution were added to the cells in TBS plus 5% FCS and incubated for 30 minutes at room temperature. After washing the cells, strefptavidin linked to Texas red [Amersham] was then added at a 1:500 dilution for 30 minutes at room temperature. To stain for BrdU incorporation, 1.5N HCl was added to the cells for ten minutes at room temperature to denature the DNA. After washing the cells, sheep anti-BrdU antibodies [Fitzgerald] at a 1:12 dilution were then added for one hour at room temperature. After washing the cells, rabbit FITC-conjugated anti-sheep antibodies [Vector] at 1:100 dilution was then incubated for 30 minutes at room temperature.
NIH-3T3 cells were placed on cover slides and transfected with the expression vectors (pFLEX-DMP1 or the corresponding vector containing the deletion or point mutants of mouse DMP1 plus or minus cyclin D or E) for fourteen hours. The cells were then washed twice and DMEM plus 10% FCS was added and the cells incubated for eight hours. Half of the cells were starved by washing twice with 0.1% FCS, and then incubated for twenty-four hours in 0.1% FCS in DMEM. The remaining cells were not starved but were incubated for twenty-four hours in DMEM plus 10% FCS without washing. BrdU was added to both groups of cells and the cells were incubated for twenty-two hours in DMEM plus 10% FCS.
The cells were then restimulated to enter the cell cycle synchronously with DMEM plus 10% FCS. At the same time, 5′-Bromo-2′ Deoxyuridine (BrdU) was added to the medium. The cells were fixed 22 hours later in methanol acetone (1:1) and stained for BrdU incorporation and DMP1 expression as described in the Materials and Methods.
A general note: Incorporation of labelled thymidine or its analogues reports DNA synthesis.

The subject of series [3] is 32P-BS2 Probe. In words: EMSA with 32P-BS2 probe on transfection lysates of NIH-3T3 fibroblasts. Format: binding. The conditions noted are these: 32P labeled BS2 probe. How it is done: (§1) Double-stranded oligonucleotides containing potential DMP1 binding sites (BS1 and BS2) and mutated versions (M1-M4) (FIG. 5B) are end-labeled with ^32P using the Klenow fragment of DNA polymerase and α-^32P-dATP (6000 Ci/mmol; Dupont NEN) (8). Nuclear extracts from mouse NIH-3T3 or CTLL cells are prepared with buffer containing 0.4 M NaCl (2). Mammalian cell extracts (15 μg protein) or Sf9 lysates (corresponding to 5×10^2 infected cells) containing ˜4 ng recombinant DMP1 are mixed with 3 ng of ^32P-labeled probe (1×10^5 cpm) in 15 ul Binding buffer containing 2.5 μg of poly(dI-dC) and 2.5 μg BSA and incubated at 4° C. for 30 minutes. For competition experiments, the indicated amounts of unlabeled oligonucleotides are added to the reactions before addition of the labeled probe. In some experiments, a bacterially produced GST-Ets2 fusion protein containing the complete Ets2 DNA-binding domain (10) is used in place of Sf9 extracts containing recombinant DMP1. Protein-DNA complexes are separated on nondenaturing 4% polyacrylamide gels as described (8). Where indicated, antiserum to DMP1 together with 2.5 μg salmon testis DNA (Sigma; used to reduce nonspecific DNA binding activity caused by serum addition) is preincubated with extracts for 30 minutes at 4° C. prior to initiation of binding reactions. Immune complexes are either removed by adsorption to protein A-Sepharose beads (immunodepletion experiments) or are allowed to remain (“supershift” experiments).
A series of deletion mutants and a point mutant of DMP1, K319E, (in which the lysine at position 319 of SEQ ID NO:1 is replaced by a glutamic acid) were prepared and used to determine the DNA-binding domain of DMP1 by electrophoretic mobility shift assay (EMSA) using a ^32P labeled BS2 probe. The DNA-binding domain of DMP1 was mapped to a central region containing the three MYB repeats plus adjacent flanking sequences: a BstEII to NcoI fragment encoding amino acids 87-458 of SEQ ID NO:1 (Table 1). This region alone was necessary and sufficient for DNA binding.

Series [4] has as its system 281 bp ARF promoter fragment. In words: Transactivation of ARF promoter-luciferase reporter in NIH-3T3 cells. As to conditions: NIH-3T3, 281 bp ARF promoter fragment-luciferase. Format: cell-based, mouse. How it is done:
Transactivation assays. NIH-3T3 cells were transfected with 4 μg of pGL2-ARFpro BamHI or its DMP1 binding site mutant, with or without increasing amount of pFLEX-DMP1, pEVRFO-Ets1, pCMV-Ets2, pRcRSV-Elfl, pdEB-Fli1, p(IEB-EWS-Fli1 or pCMV-E2F-1 (89-437), and 4 μg β-actin SEAP control vectors [Inoue and Sherr, Mol. Cell. Biol. 18: 1590-1600 (1998); Inoue et al., J. Biol. Chem. 273:29188-29194 (1998); Davis and Roussel, Gene 171:265-269 (1996); Baily et al., Mol. Cell. Biol. 14:3230-3241 (1994)]. Transfections and normalization of luciferase levels with internal control SEAP levels were performed as described [Inoue and Sherr, Mol. Cell. Biol. 18:1590-1600 (1998)].
Similarly, DMP1 deletion mutants defective in transactivation [Inoue and Sherr, Mol. Cell. […] Mutation of the DMP1 binding site within the ARF promoter [changing CCCGGATGC, (SEQ ID NO:33) to CCCGTCGAC, (SEQ ID NO:42)] also completely abolished transactivation by wild-type DMP1 (FIG. 14C, mutant reporter). Therefore, sequences within the −189 to −181 ARF promoter segment were the only ones responsible for DMP1-mediated transactivation. Although Ets1 could bind to a 23 base pair oligonucleotide containing the DMP1 consensus site (FIG. 14B), several Ets proteins were unable to induce significant reporter gene expression from the more complex 281 base pair ARF promoter (FIG. 14C). […]

Series [5] has as its target T1, GST-Ets2 fusion protein (Homo sapiens, UniProt P15036).
T1 construct: made in house; host or cells: bacteria
T1 sequence (P15036 363-443 limits assumed): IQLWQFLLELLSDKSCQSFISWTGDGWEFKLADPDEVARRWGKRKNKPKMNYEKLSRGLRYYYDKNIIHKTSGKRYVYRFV
The series is described as follows: EMSA competition with bacterial GST-Ets2 fusion protein. The conditions noted are these: excess unlabeled oligonucleotide. Format: binding. How it is done:
as §1
(§2) Using electrophoretic mobility shift assays (EMSA) performed after mixing a titrated excess (3 ng) of ^32P-end labeled BS1 probe with Sf9 lysates producing DMP1 (˜4 ng recombinant protein per reaction), a BS1-containing protein complex is detected that was competed with an excess of unlabeled BS1 oligonucleotide but not with mutant oligonucleotides M1 and M2 (FIG. 6A). […] More subtle mutations within this region may be tolerated, because high concentrations of M4 competed for BS1 binding to both Ets2 and DMP1 in subsequent studies (FIG. 5B and see below). DMP1 also binds a BS2 probe, and the binding is competed by excess BS2 or BS1 (FIG. 6B). In agreement with the site selection frequencies (FIG. 5A), binding of ^32P-BS1 under equivalent conditions was competed more efficiently by excess unlabeled BS1 than by BS2 (FIG. 6B). […] In agreement, Ets2 binding to BS1 could be competed with excess unlabeled BS1 and M3, but not by BS2 (FIG. 6C). Therefore, although both DMP1 and Ets2 can each bind to BS1 sequences, their exclusive interactions with BS2 and M3, respectively, help to distinguish DMP1 and Ets binding activities (summarized in FIG. 5B).
(In general: Mobility shift assays separate free from complexed probe on a gel.)

The target of series [6] is T2, recombinant DMP1 (Mus musculus, UniProt Q8CE22).
T2 construct: made in house; host or cells: Sf9 insect cells, pAcYM1 baculovirus vector; used as crude lysate (~4 ng DMP1 per reaction)
T2 sequence (Q8CE22 1-761): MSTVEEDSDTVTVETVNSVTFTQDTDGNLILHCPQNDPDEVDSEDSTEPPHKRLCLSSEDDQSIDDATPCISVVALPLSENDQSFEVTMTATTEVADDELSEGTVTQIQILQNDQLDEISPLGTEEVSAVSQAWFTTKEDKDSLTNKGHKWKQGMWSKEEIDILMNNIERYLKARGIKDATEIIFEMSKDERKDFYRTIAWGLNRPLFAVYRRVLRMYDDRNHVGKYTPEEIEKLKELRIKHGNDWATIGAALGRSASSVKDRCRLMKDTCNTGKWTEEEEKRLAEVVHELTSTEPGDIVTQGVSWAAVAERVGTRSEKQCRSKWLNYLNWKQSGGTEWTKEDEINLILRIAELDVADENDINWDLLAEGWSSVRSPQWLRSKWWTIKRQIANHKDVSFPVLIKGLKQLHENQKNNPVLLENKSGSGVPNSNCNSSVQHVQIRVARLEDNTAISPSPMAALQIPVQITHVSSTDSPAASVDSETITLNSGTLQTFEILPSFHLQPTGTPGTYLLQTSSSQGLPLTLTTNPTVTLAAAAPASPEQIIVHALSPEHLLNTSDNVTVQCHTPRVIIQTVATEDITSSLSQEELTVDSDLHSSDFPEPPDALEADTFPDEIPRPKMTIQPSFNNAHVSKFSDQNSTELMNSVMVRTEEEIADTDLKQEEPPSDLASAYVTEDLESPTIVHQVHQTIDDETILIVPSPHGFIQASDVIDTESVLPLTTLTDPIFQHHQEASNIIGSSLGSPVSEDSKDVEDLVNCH
The series is described as follows: EMSA competition with Sf9 lysates producing recombinant DMP1. Format: binding. The conditions noted are these: excess unlabeled oligonucleotide. Here is the method:
as §1, §2

Series [7] concerns the target T2, recombinant DMP1. In words: EMSA competition, recombinant DMP1 and 281 base pair ARF promoter fragment. Format: binding. As to conditions: 200-fold excess of unlabelled oligonucleotide. Here is the method:
Electrophoretic mobility shift assay (EMSA). Recombinant DMP1 protein was prepared in Sf9 cells [Hirai and Sherr, Mol. Cell. Biol. 16:6457-6467 (1996)]. Purified bacterial proteins representing the Ets1 DNA binding domain or full-length Ets1 [Inoue, et al., J. Biol. Chem. 273:29188-29194 (1998)] were used. EMSAs were performed [Inoue and Sherr, Mol. Cell. Biol. 18:1590-1600 (1998)] using either a 281-bp genomic fragment (−225 to +56) or double-stranded oligonucleotides containing the DMP1/Ets site obtained by annealing oligonucleotide 5′-[…]-3′ (sense strand SEQ ID NO:41); DMP1/Ets consensus sequence underlined) with a complementary antisense strand. For competition experiments, a 200-fold excess of unlabelled oligonucleotides was added to reaction mixtures before the probe. To verify the identity of the proteins in shifted complexes, reaction mixtures were incubated with control nonimmune rabbit serum (NRS), serum AF [Hirai and Sherr, Mol. Cell. Biol. 16:6457-6467 (1996)] and M-10 (both to DMP1 carboxylterminal epitopes), S-19 (DMP1 N-terminus), or C-20 (Ets1 C-terminus) before electrophoresis. M-10, S-19, and C-20 were from Santa Cruz Biotechnology.
The nucleotide sequence of the proximal promoter region of the murine ARF gene relative to the transcription initiation site as defined by S1 mapping analysis was determined (FIG. 13). […]

With “M11: DMP1 point mutant, lysine at position 319 of SEQ ID NO:1 replaced by glutamic acid”, the “Luciferase Activity” value in series [1] came to 1.1. Further, the “% Cells BrdU Positive” value in series [2] (Table 2, expression vector 3 μg/10 ml) worked out at 48%. Moreover, in series [2] (nonstarved cells, additive None, labeled 22 hours), the “% Cells BrdU Positive in 10% FCS” value amounted to 54%. In series [2] (starved cells, additive None, labeled 22 hours), the “% Cells BrdU Positive in 0.1% FCS” value came to 47%. For the same substance, the “affinity for the DNA probe relative to wildtype” value in series [3] is on record as “about 2%”. In addition, in series [4], the “ARF promoter reporter gene expression” value is “had no activity”.
As to “oligonucleotide BS2: probe/competitor BS2, SEQ ID NO:11, DMP1 binding site CCCGTATGT with GTA core (DNA AATTGACCCGTATGTAGGTACGC; chemistry not given here)”, in series [5], the “competition for BS1 binding to Ets2” value was “not”. Also, in series [6], the “competition for 32P-BS1 probe binding to DMP1” value is given as “competed” and the “competition for BS2 probe binding to DMP1” value was “competed”. Moreover, the “competition for DMP1 binding to the 281 base pair ARF promoter fragment” value in series [7] was “completely inhibited”.
